Source: patent US11384381B2, “Reaction accelerating agent” (Kikkoman Corporation, priority 2016, dated 2022)

Legend:
[1] = test system: CFP-DH4 (A1cOX); test: HbA1c detection reaction completed with excess A1cOX (Example 4); type: biochemical; details: 0.04% (w/v) compound, 5.3 mg/ml CFP-DH4 (excess), blood cells 10.4% HbA1c, pH 6.5, 37° C.
Description: In this Example, the amount of change in absorbance when an excess amount of A1cOX is used and HbA1c detection reaction was completed is determined.
A reagent for HbA1c measurement having the following composition was prepared, and the measurement of HbA1c was carried out using Bio Majesty JCA-BMI650 (manufactured by JEOL Ltd.).
(§1) Blood cells (10.4% HbA1c (NGSP value))
(§2) 30 mM MOPS-NaOH buffer solution, pH 6.5
0.2% (w/v) n-dodecyl-β-D-maltoside (manufactured by Dojindo Laboratories)
(§3) 10 U/ml peroxidase PEO-301 (Toyobo Co., Ltd.)
(§4) 0.023 mM 10-(carboxymethylaminocarbonyl)-3,7-bis(dimethylamino)phenothiazine sodium (DA-67, manufactured by Wako Pure Chemical Industries, Ltd.)
0.04% (w/v) of the compound of Comparative Example 2 (Wako Pure Chemical Industries, Ltd.), any one compound of the present invention (all from Tokyo Chemical Industry Co., Ltd. except for Acid Yellow 34 from MP Biomedicals, LLC), or compound-free (Comparative Example 1) ion-exchange water as shown in Table 1 (Second Reagent-A) 10 mM MOPS-NaOH buffer solution, pH 6.5 5.3 mg/ml CFP-DH4 (A cOX)
8 μl of the sample diluted 51-fold with ion-exchange water was added to 96 μl of the first reagent-A, and the mixture was incubated at 37° C. for 5 minutes. Then, 24 μl of the second reagent-A was added thereto, and the quantitative reaction of hydrogen peroxide resulting from the oxidation of the β-chain amino terminus of HbA1c was allowed to progress at 37° C. for 5 minutes. The absorbance (A694 and A751) of the reaction solution for light at wavelengths of 694 nm and 751 nm was measured over time for 10 minutes after the mixing of the diluted sample with the first reagent-A to determine the value subtracting of A751 from A694, i.e., the value A694/751. Subsequently, ΔA was calculated by subtracting, from A694/751, the value of (104/128) times A694/751 4.8 minutes after mixing the diluted sample with the first reagent-A. Incidentally, 4.8 minutes after the mixing of the diluted sample with the first reagent-A represents the time immediately before the addition of the second reagent-A. ΔA 9 minutes and 10 minutes after the mixing of the diluted sample with the first reagent (ΔA9min and ΔA10min) are shown in Table 1.
In other words, it can be recognized that the quantitative reaction of HbA1c, i.e., the quantitative reaction of hydrogen peroxide resulting from the oxidation of HbA1c, was completed in 10 minutes after the mixing of the diluted sample with the first reagent-A. Accordingly, in Examples 4 and 5, ΔA10min in each Comparative Example or the present invention was defined as ΔA when 100% of the quantitative reaction of HbA1c progressed under each condition (ΔA100%).

[2] = test system: CFP-DH4 (A1cOX); test: Acceleration of HbA1c detection reaction with small amount of A1cOX (Example 5); type: biochemical; details: HbA1c detection reaction, ΔA/ΔA100%, 0.04% (w/v) compound, 1.1 mg/ml CFP-DH4
Description: Next, in this Example, the degree of acceleration of HbA1c detection reaction by the compound of the present invention was determined using a small amount of A1cOX.
A reagent for HbA1c measurement having the following composition was prepared, and the measurement of HbA1c was carried out using Bio Majesty JCA-BM1650 (manufactured by JEOL Ltd.).
as §1, §2
0.2% (w/v) n-dodecyl-3-D-maltoside (manufactured by Dojindo Laboratories)
as §3, §4
0.04% (w/v) of the compound of Comparative Example 2, any one compound of the present invention, or compound-free (Comparative Example 1) ion-exchange water as shown in Table 2
10 mM MOPS-NaOH buffer solution, pH 6.5
1.1 mg/ml CFP-DH4 (A cOX)
8 μl of the sample diluted 51-fold with ion-exchange water was added to 96 μl of the first reagent, and the mixture was incubated at 37° C. for 5 minutes. Then, 24 μl of the second reagent-B was added thereto, and the quantitative reaction of hydrogen peroxide resulting from the oxidation of the β-chain amino terminus of HbA1c was allowed to progress at 37° C. for 5 minutes. The absorbance ([…] and A751) of the reaction solution for light at wavelengths of 694 nm and 751 nm was measured over time for 10 minutes after the mixing of the diluted sample with the first reagent to determine the value of subtraction of A751 from A694, i.e., the value A694/751. Subsequently, ΔA was calculated by subtracting, from A694/751, the value of (104/128) times A694/751 4.8 minutes after the mixing of the diluted sample with the first reagent. Incidentally, […] after the mixing of the diluted sample with the first reagent represents the time immediately before the addition of the second reagent-B.
Next, ΔA calculated in this Example was divided by ΔA100% defined in Example 4 to calculate the degree of progression of HbA1c detection reaction. The degree of progression of HbA1c detection reaction 7.5 and 10 minutes after the mixing of the diluted sample with the first reagent (in other words, 2.5 and 5 minutes after the addition of the second reagent-B) is shown in Table 2.

O=C([O-])C1=NN(c2ccc(S(=O)(=O)[O-])cc2)C(=O)C1N=Nc1ccc(S(=O)(=O)[O-])cc1.[Na+].[Na+].[Na+] (stereo not shown) [Tartrazine, reference compound]
ΔA9 min ([1]; change in A694-A751 9 minutes after mixing sample with first reagent): 0.032 | ΔA10 min ([1]; change in A694-A751 10 minutes after mixing sample with first reagent, defined as ΔA100%): 0.032 | Degree of progression of reaction (%) after 7.5 minutes ([2]; 2.5 minutes after addition of second reagent, not added: 51): 38% | Degree of progression of reaction (%) after 10 minutes ([2]; 5 minutes after addition of second reagent, not added: 73): 62%
